According to US11504339B2, “Compositions comprising urolithin a and uses thereof in treating kidney injury” (priority 2020, dated 2022):

How the values were obtained:
[1] = system: renal apoptosis; experiment: TUNEL immunofluorescence of kidney sections; assay type: in vivo, mouse
From the text: Kidney sections were deparaffinized in xylene, rehydrated, and washed. After antigen retrieval, tissue sections were stained with fluorescein-labeled terminal deoxynucleotidyl transferase dUTP nick end labeling (TUNEL) kit (Roche, Mannheim, Germany). Slides were mounted using Vectashield Mounting Media containing DAPI (Vector Laboratories, Burlingame, Calif.). Tissue sections were imaged using the EVOS FL fluorescence microscope at 20× original magnification. TUNEL-positive cells from ten fields per kidney section and five sections per group of at least four animals were quantified using the ImageJ software's particle counter by thresholding for green fluorescence.

[2] = system: intracellular NAD; experiment: Intracellular NAD+ measurement in kidney cortex; assay type: in vivo, mouse; settings: normalized to total protein
Protocol: Approximately 5 mg of kidney cortex from each mouse was homogenized in cold RIPA buffer. After centrifugation, approximately 50 μL of supernatant was processed in triplicate using Amplite Fluorimetric NAD Assay Kit (AAT Bioquest, Sunnyvale, Calif.) while following manufacturer instructions. Fluorescence at 420/480 nm was measured using the plate reader (Tecan Infinite M200) and NAD concentration determined using a standard curve constructed on the same day of the experiment. Protein concentration of the lysate was determined by the Bradford Assay (Bio-Rad) and served as normalization.

[3] = system: miRs and stress responsive genes; experiment: Real-time PCR of renal cortex (miRs and stress responsive genes); assay type: in vivo, mouse
Protocol: Approximately 5 mg of kidney cortex was homogenized in Trizol solution. Micro RNA and large RNA were sequentially extracted and purified with E.Z.N.A. Micro RNA Kit (Omega Bio-tek, Norcross, Ga.) following manufacturer instructions. RNA concentrations were determined using the NanoQuant plate reader (Tecan Infinite M200). Reverse transcription for large RNA and miRNA were separately carried out using iScript gDNA Clear cDNA Synthesis Kit (Bio-Rad) and the miScript II RT Kit (Qiagen, Hilden, Germany), respectively. HiSpec Buffer was used in the latter RT reaction to target mature miRNA, and 1 μg of template RNA was used for all RT reactions. The CFX96 Touch Real-Time PCR Detection System (Bio-Rad) was used for qPCR. For gene expression, cDNA was amplified using appropriate primers (see Table 1), along with the iTaq Universal SYBR Green Supermix (Bio-Rad). Primers were pre-designed and validated by Harvard PGA Primerbank.
For miRNA expression, cDNA was amplified using miScript Primer Assays for miR-192-5p and miR-140-5p (Qiagen), along with the miScript SYBR Green PCR Kit (Qiagen). ΔCt values were calculated with β-actin (gene expression) or RNU6 (miRNA) normalization, and fold change of the gene of interest between groups was expressed as 2^−ΔΔCt.

[4] = system: NRF2, P53, mitochondrial OXPHOS complexes; experiment: Western blot of kidney cortex; assay type: in vivo, mouse
Protocol: Approximately 5 mg of kidney cortex from each mouse was homogenized in cold RIPA buffer. After centrifugation, the supernatant was collected and protein concentration was determined using the Bradford assay (Thermo Scientific, Waltham, Mass.). Approximately 30 μg of protein was subjected to denaturing SDS-PAGE. The gel-separated proteins were transferred to a 0.45 μm nitrocellulose membrane, followed by standard Western blot protocol.
Primary antibodies Nrf2 (CAT #MBS2538072, MyBiosource, San Diego, Calif.), P53 (CAT #928, Cell Signaling Technology, Danvers, Mass.), and GAPDH (CAT #2118, Cell Signaling Technology) were diluted at 1:1000, while Total OXPHOS Cocktail (CAT #ab110413, Abcam, Los Angeles, Calif.) was diluted at 1:250. HRP-conjugated secondary antibodies (Thermo Scientific): goat anti-mouse IgG and anti-rabbit igG were diluted at 1:5000. The ECL reagent was used to develop protein signals, and images were captured by the ChemiDoc imaging system (Bio-Rad, Hercules, Calif.).

[5] = system: CIS-resistant A2780 ovarian cancer cells; experiment: Cell viability of cisplatin-resistant A2780 cells, UA plus CIS; assay type: cell-based; settings: alone vs combination at the same concentrations
[6] = CIS control compared to the P2Ns-GA UA and negative control groups
[7] = CIS control compared with the P2Ns-GA UA and negative control groups
[8] = at sacrifice, normalized to U6 snRNA

## N.N.[Cl][Pt][Cl] [CIS, Cis-diamminedichloridoplatinum]
[1]
  renal apoptosis (TUNEL positive cells): increased incidences
[2]
  intracellular NAD: reductions
[3]; [6]
  renal expression of Mt1 (NRF2-inducible gene): 8-12 fold
  renal expression of Srxn1 (NRF2-inducible gene): 4-5 fold
  renal expression of Txnrd1 (NRF2-inducible gene): 7-14 fold
[3]; [7]
  renal expression of Atf3 (P53-inducible gene): 3-4 fold
  renal expression of Cdkn1a (P21) (P53-inducible gene): 7-49 fold
  renal expression of Trp53inp1 (SIP) (P53-inducible gene): 9-12 fold
[3]; [8]
  renal miR-140-5p expression: reductions
  renal miR-192-5p expression: reductions
[3]; normalized to β-actin
  PARP1 expression: elevated
  expression of genes associated with hypoxia (HIF1α, Pgk1): decreased expression
[4]; Western blot, kidney cortex
  mitochondrial complexes I, II, III, and IV / deficiencies in oxidative phosphorylation: marked decreases
[4]; compared to the P2Ns-GA UA and negative control groups
  renal expression of the NRF2 protein: significantly higher
[5]
  cell death / cell viability: failed to cause cell death

## O=c1oc2cc(O)ccc2c2ccc(O)cc12 [UA, 3,8-Dihydroxybenzo[c]chromen-6-one]
[5]
  cell death / cell viability: failed to cause cell death
